In patent US7129036B1, “Reporter molecules and methods for assaying the lipidations status of a cell” (Tibotec BVBA, priority 1999, dated 2006):
“Also recorded” adds a separate entry of the source.

Experiments:
Format in all cases: cell-based
[1] = molecular target: T1, farnesyl transferase (Homo sapiens, UniProt P49354+P49356); assay: Farnesyl transferase inhibition assay (EGFP-RasF membrane localization by fluorescence microscopy)
T1 construct: endogenous in cells; host or cells: K562 cells transduced with LNC-EGFP-RasF reporter
Procedure: The idea was to target EGFP to the plasma membrane by using a farnesylation signal sequence. […] The last 20 amino acids of c-Ha-Ras provides farnesylation and palmitoylation for targeting the Ras protein to the plasma membrane. We fused the C-terminal membrane targeting signal sequence of the human c-Ha-ras1 (J00277, NCBI) to the C-terminal end of EGFP (Clontech).
Twenty amino acids of the C-terminal end of c-Ha-ras 1 located in exon 4 were added to the C-terminus of the EGFP coding sequence by polymerase chain reaction (PCR) cloning.
The amphotropic packaging cell line PT67 (Clontech) was transfected (Pfx-2, Invitrogen) with pLNC-EGFP-(DEVD)-RasF and selected in 400 μg/ml G418. […] Gene transfer referred to as transduction in K562 and MT4 cells was easily observed by fluorescence microscopy.
(§1) K562 (MT4) cells were separated from PT67-pLNC-EGFP-(DEVD)-RasF and Non transduced K562 (MT4) cells were removed by selection in 400 μg/ml G418. The remaining fluorescent K562 (MT4) cells were directly cloned in 96 well plates by fluorescence activated cell sorting using an automatic cell deposit unit. […] Two weeks later, appropriate clones were selected by visual inspection using a fluorescence microscope and designated K562-LNC-EGFP-RasF or MT4-LNC-EGFP-(DEVD)-RasF. […]
In cells expressing EGFP without a farnesylation signal sequence, fluorescence is observed throughout the cell. […]

[2] = tested on: caspase 3 and/or caspase 7; assay: Caspase assay (EGFP-DEVD-RasF membrane targeting by fluorescence microscopy); conditions: MT4-LNC-EGFP-DEVD-RasF cells, 10 μM, 4 h, FIG. 3B
Procedure: For the apoptosis construct, the same primer was used except that a sequence encoding DEVD (i.e. caspase 3 and 7 cleavage site) was included between EGFP and the Ras plasmamembrane targeting signal sequence (SEQ ID NO 4 and SEQ ID NO 5).
(§2) The amphotropic packaging cell line PT67 (Clontech) was transfected (Pfx-2, Invitrogen) with pLNC-EGFP-(DEVD)-RasF and selected in 400 μg/ml G418. In the surviving colonies, transcription occurs from (a) stably integrated plasmid(s) pLNC-EGFP-(DEVD)RasF. The resulting LNC-EGFP-(DEVD)-RasF mRNA is translated into EGFP-(DEVD)-RasF and the neomycin resistance protein and is also packaged into replication incompetent virions. […] Gene transfer referred to as transduction in K562 and MT4 cells was easily observed by fluorescence microscopy.
as §1

[3] = tested on: MT4-LNC-EGFP-RasF cells; assay: Control without DEVD cleavage site (EGFP-RasF membrane targeting by fluorescence microscopy); conditions: 4 h, FIG. 4B
Procedure: as §2, with “virions. Thus, the PT67-pLNC-EGFP-(DEVD)-RasF constitutively produces viral particles, able to transmit the EGFP-(DEVD)-RasF and the neomycin resistance gene at the same time. These amphotropic virions give the flexibility to rapidly develop novel cell lines stably expressing EGFP-(DEVD)-RasF proteins.” for “virions.”
as §1

[4] = tested on: caspase 3; assay: Caspase 3 activity with fluorogenic Ac-DEVD-AMC substrate; conditions: MT4 cells, Ac(N-acetyl)-DEVD-AMC substrate, results not shown

SMILES | EGFP membrane localization ([1]; K562 LNC-EGFP-RasF cells, 5 μM, FIG. 2) | EGFP compartmentalisation ([1]; K562 cells, high enough concentrations (>5 μM)) | EGFP membrane targeting [2] | translocation of EGFP ([3]; MT4-LNC-EGFP-RasF cells lacking DEVD site) | cell morphology ([3]; MT4-LNC-EGFP-RasF cells) | caspase 3 activity [4]
CSCC[C@H](NC(=O)c1ccc(NC[C@@H](N)CS)cc1-c1ccccc1)C(=O)O [FTI-276] | disruption of membrane localization | almost completely disappears | – | – | – | –
CN[C@@H]1C[C@H]2O[C@@](C)([C@@H]1OC)n1c3ccccc3c3c4c(c5c6ccccc6n2c5c31)C(=O)NC4 [staurosporin] | – | – | partially disappears; also recorded: reduced EGFP membrane targeting | no prominent translocation of EGFP occurs; also recorded: did not result in marked translocation of EGFP | affects the cells morphology within hours; also recorded: altered cell morphology | induced caspase 3 activity
